Results published in patent publication US5602101A, “Antithrombotic agents” (priority 1994, dated 1997).

The compounds below were run against T1, Human plasmin (Homo sapiens, UniProt P00747) (assay: Serine protease inhibition, plasmin (chromogenic substrate), Kass). Conditions: substrate H-D-Val-Leu-Lys-p-nitroanilide.
T1 construct: Human plasmin is purchased from Boehringer Mannheim, Indianapolis, Ind; purchased Boehringer Mannheim, Indianapolis, Ind
Type: biochemical
Procedure: (§1) The assay is carried out by mixing 50 μl buffer (0.03M Tris, 0.15M NaCl, pH 7.4), 25 μl of human thrombin solution (purified human thrombin Enzyme Research Laboratories, South Bend, Ind.) at 8 NIH units/ml and 25 μl of test compound in a solvent (50% aqueous methanol (v:v)). Then 150 μl of an aqueous solution of the chromogenic substrate (at 0.25 mg/ml) are added and the rates of hydrolysis of the substrate are measured by monitoring the reactions at 405 nm for the release of p-nitroaniline. Standard curves are constructed by plotting free thrombin concentration against hydrolysis rate. The hydrolysis rates observed with test compounds are then converted to "free thrombin" values in the respective assays by use of the standard curves. The bound thrombin (bound to test compound) is calculated by subtracting the amount of free thrombin observed in each assay from the known initial amount of thrombin used in the assay. The amount of free inhibitor in each assay is calculated by subtracting the number of moles of bound thrombin from the number of moles of added inhibitor (test compound).
(§2) Kass is calculated for a range of concentrations of test compounds and the mean value is reported in units of liter per mole.
(§3) By substantially following the procedures described above for human thrombin, and using other human blood coagulation system serine proteases, and using fibrinolytic system serine proteases, with the appropriate chromogenic substrate, identified below, selectivity of the compounds of the present invention with respect to the coagulation factor serine proteases and to the fibrinolytic serine proteases are evaluated as well as their substantial lack of interference with human plasma clot fibrinolysis.
(§4) Human factors X, Xa, IXa, XIa, and xIIa are purchased from Enzyme Research Laboratories, South Bend, Ind.; human urokinase from Leo Pharmaceuticals, Denmark; and recombinant activated Protein C (aPC) is prepared at Eli Lilly and Co. substantially according to U.S. Pat. No. 4,981,952 incorporated by reference herein in its entirety. Chromogenic substrates: N-Benzoyl-Ile-Glu-Gly-Arg-p-nitroanilide (for factor Xa); N-Cbz-D-Arg-Gly-Arg-p-nitroanilide (for factor IXa assay as the factor Xa substrate) pyroglutamyl-Pro-Arg-p-nitroanilide (for factor XIa and for aPC); H-D-Pro-Phe-Arg-p-nitroanilide (for factor XIIa); and pyroglutamyl-Gly-Arg-p-nitroanilide (for urokinase); are purchased from KabiVitrum, Stockholm, Sweden, or from Midwest Biotech, Fishers, Indiana. Bovine trypsin is purchased from Worthington Biochemicals, Freehold, N.J., and human plasma kallikrein from Kabi Vitrum, Stockholm, Sweden. N-Benzoyl-Phe-Val-Arg-p-nitroanilide, the substrate for human thrombin and for trypsin, is synthesized according to procedures described above for the compounds of the present invention, known methods of peptide coupling from commercially available reactants, or was purchased from Midwest Biotech, Fishers, Ind. Human plasmin is purchased from Boehringer Mannheim, Indianapolis, Ind.; nt-PA is purchased as single chain activity reference from American Diagnostics, Greenwich, Conn.; modified-t-PA6 (mt-PA6) is prepared at Eli Lilly and Company by procedure known in the art (See, Burck, et al., J. Biol. Chem., 265, […] (1990). Plasmin chromogenic substrate H-D-Val-Leu-Lys-p-nitroanilide and tissue plasminegen activator (t-PA) substrate H-D-Ile-Pro-Arg-p-nitroanilide are purchased from Kabi Vitrum, Stockholm, Sweden.

T1 sequence (P00747 581-810 limits assumed): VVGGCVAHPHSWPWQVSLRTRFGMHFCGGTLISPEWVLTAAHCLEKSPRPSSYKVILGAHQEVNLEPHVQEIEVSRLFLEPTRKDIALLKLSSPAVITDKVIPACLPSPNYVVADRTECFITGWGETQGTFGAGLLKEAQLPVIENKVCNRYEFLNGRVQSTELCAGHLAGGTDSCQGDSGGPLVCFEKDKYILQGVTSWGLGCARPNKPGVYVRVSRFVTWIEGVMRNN
T1 sequence (P00747 97-580 partner limits assumed): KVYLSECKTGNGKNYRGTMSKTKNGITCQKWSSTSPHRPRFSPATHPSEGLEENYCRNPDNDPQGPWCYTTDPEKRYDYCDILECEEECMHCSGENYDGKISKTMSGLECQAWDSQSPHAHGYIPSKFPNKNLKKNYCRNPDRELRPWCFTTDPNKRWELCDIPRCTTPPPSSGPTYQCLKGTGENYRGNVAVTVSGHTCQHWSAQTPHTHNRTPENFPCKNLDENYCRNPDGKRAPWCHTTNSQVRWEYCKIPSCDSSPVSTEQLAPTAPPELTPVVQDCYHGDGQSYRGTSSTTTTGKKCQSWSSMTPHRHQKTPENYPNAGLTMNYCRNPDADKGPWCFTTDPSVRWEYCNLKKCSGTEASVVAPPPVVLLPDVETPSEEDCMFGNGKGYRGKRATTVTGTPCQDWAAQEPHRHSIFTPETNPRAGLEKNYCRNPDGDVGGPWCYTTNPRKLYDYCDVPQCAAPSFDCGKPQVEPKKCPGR

In the case of `CC(=O)N[C@H](Cc1ccccc1)C(=O)N1CCC[C@H]1C(=O)N[C@H](C=O)CCCN=C(N)N.Cl` [Example 23, Ac-D-Phe-Pro-Arg-H.HCl], the “Enzyme Kass, Plasmin” value is reported as 0.28 L/mol × 10^6.

The compounds below were run on Human Plasma (assay: Anticoagulation in human plasma, prothrombin time (PT)). Conditions: concentration required to double the PT.
Type: biochemical
Procedure: (§5) Dog plasma and rat plasma are obtained from conscious mixed-breed hounds (either sex, Hazelton-LRE, Kalamazoo, Mich., U.S.A.) or from anesthetized male Sprague-Dawley rats (Harlan Sprague-Dawley, Inc., Indianapolis, Ind., U.S.A.) by venipuncture into 3.8 percent citrate. Fibrinogen is prepared from in-date ACD human blood as the fraction I-2 according to previous procedures and specifications. Smith, Biochem. Chem. […] Human fibrinogen is also purchased as 98 percent pure/plasmin free from American Diagnostics, Greenwich, Conn. Coagulation reagents ACTIN, Thromboplastin, and Human plasma are from Baxter Healthcare Corp., Dade Division, Miami, Fla. Bovine thrombin from Parke-Davis (Ann Arbor, Mich.) is used for coagulation assays in plasma. Coagulation assay procedures are as previously described. Smith, et al., Thrombosis Research, 5, 163-174 (1988). A CoAScreener coagulation instrument (American LABor, Inc.) is used for all coagulation assay measurements. The prothrombin time (PT) is measured by adding 0.05 ml saline and 0.05 ml Thromboplastin-C reagent to 0.05 ml test plasma. The activated partial thromboplastin time (APTT) is measured by incubation of 0.05 ml test plasma with 0.05 ml Actin reagent for 120 seconds followed by 0.05 ml CaCl2 (0.02M). […] The compounds of formula I are added to human or animal plasma over a wide range of concentrations to determine prolongation effects on the APTT, PT, and TT assays. Linear extrapolations are performed to estimate the concentrations required to double the clotting time for each assay.

In the case of `CC(=O)N[C@H](Cc1ccccc1)C(=O)N1CCC[C@H]1C(=O)N[C@H](C=O)CCCN=C(N)N.Cl` [Example 23, Ac-D-Phe-Pro-Arg-H.HCl], the “2 × Clotting time, PT” value is reported as 4,100 ng/ML.

In order of falling “2 × Clotting time, PT” value:
1. Cl.N=C(N)NCCC[C@@H](C=O)NC(=O)[C@@H]1CCCN1C(=O)[C@@H](Cc1ccccc1)NCC(=O)O [Example 35, HOOCCH2 -D-Phe-Pro-ArgH.HCl]  1129 ng/mL
2. Cl.N=C(N)NCCC[C@@H](C=O)NC(=O)[C@@H]1CCCN1C(=O)[C@@H](CC1CCCCC1)NCC(=O)O [Example 36, HOCCH2 -D-Cha-Pro-ArgH.HCl]  695 ng/mL

What follows are compounds tested on Human Plasma (assay: Anticoagulation in human plasma, thrombin time (TT)). Conditions: concentration required to double the thrombin time.
Type: biochemical
Procedure: as §5

In order of rising “2 × Clotting time, TT” value:
1. Cl.N=C(N)NCCC[C@@H](C=O)NC(=O)[C@@H]1CCCN1C(=O)[C@@H](CC1CCCCC1)NCC(=O)O [Example 36, HOCCH2 -D-Cha-Pro-ArgH.HCl]  9 ng/mL
2. Cl.N=C(N)NCCC[C@@H](C=O)NC(=O)[C@@H]1CCCN1C(=O)[C@@H](Cc1ccccc1)NCC(=O)O [Example 35, HOOCCH2 -D-Phe-Pro-ArgH.HCl]  14 ng/mL
3. CC(=O)N[C@H](Cc1ccccc1)C(=O)N1CCC[C@H]1C(=O)N[C@H](C=O)CCCN=C(N)N.Cl [Example 23, Ac-D-Phe-Pro-Arg-H.HCl]  140 ng/mL

What follows are compounds tested on Human Plasma (assay: Anticoagulation in human plasma, activated partial thromboplastin time (APTT)). Conditions: concentration required to double the APTT.
Type: biochemical
Procedure: as §5

For `CC(=O)N[C@H](Cc1ccccc1)C(=O)N1CCC[C@H]1C(=O)N[C@H](C=O)CCCN=C(N)N.Cl` [Example 23, Ac-D-Phe-Pro-Arg-H.HCl], the “2 × Clotting time, APTT” value was 2,700 ng/ML.

In order of falling “2 × Clotting time, APTT” value:
1. Cl.N=C(N)NCCC[C@@H](C=O)NC(=O)[C@@H]1CCCN1C(=O)[C@@H](Cc1ccccc1)NCC(=O)O [Example 35, HOOCCH2 -D-Phe-Pro-ArgH.HCl]  723 ng/mL
2. Cl.N=C(N)NCCC[C@@H](C=O)NC(=O)[C@@H]1CCCN1C(=O)[C@@H](CC1CCCCC1)NCC(=O)O [Example 36, HOCCH2 -D-Cha-Pro-ArgH.HCl]  284 ng/mL

These compounds were tested against T2, tissue plasminogen activator (t-PA) (Homo sapiens, UniProt P00750) (assay: Serine protease inhibition, t-PA (chromogenic substrate), Kass). Conditions: substrate H-D-Ile-Pro-Arg-p-nitroanilide.
T2 construct: purchased American Diagnostics, Greenwich, Conn
T2 sequence (P00750 36-562): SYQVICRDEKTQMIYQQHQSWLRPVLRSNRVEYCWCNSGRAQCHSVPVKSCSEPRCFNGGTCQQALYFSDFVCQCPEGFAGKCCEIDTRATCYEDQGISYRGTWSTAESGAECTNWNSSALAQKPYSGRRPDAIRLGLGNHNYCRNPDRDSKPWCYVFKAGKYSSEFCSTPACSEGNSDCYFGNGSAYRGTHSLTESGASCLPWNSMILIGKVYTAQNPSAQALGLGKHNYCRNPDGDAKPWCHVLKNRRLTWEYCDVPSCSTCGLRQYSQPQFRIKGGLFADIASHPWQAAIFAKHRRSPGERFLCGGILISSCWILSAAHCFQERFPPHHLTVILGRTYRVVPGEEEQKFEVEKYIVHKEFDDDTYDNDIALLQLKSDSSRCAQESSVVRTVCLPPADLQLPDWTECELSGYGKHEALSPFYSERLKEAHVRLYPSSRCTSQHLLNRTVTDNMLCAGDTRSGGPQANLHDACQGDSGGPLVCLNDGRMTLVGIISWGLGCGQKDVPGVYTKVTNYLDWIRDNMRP
Type: biochemical
Procedure: as §1, §2, §3, §4

With `CC(=O)N[C@H](Cc1ccccc1)C(=O)N1CCC[C@H]1C(=O)N[C@H](C=O)CCCN=C(N)N.Cl` [Example 23, Ac-D-Phe-Pro-Arg-H.HCl] the “Enzyme Kass, t-Pa” value was 0.11 L/mol × 10^6.

What follows are compounds tested against T3, Bovine trypsin (Bos taurus, UniProt P00760) (assay: Serine protease inhibition, trypsin (chromogenic substrate), Kass). Conditions: substrate N-Benzoyl-Phe-Val-Arg-p-nitroanilide.
T3 construct: Bovine trypsin is purchased from Worthington Biochemicals, Freehold, N.J; purchased Worthington Biochemicals, Freehold, N.J
T3 sequence (P00760 24-246): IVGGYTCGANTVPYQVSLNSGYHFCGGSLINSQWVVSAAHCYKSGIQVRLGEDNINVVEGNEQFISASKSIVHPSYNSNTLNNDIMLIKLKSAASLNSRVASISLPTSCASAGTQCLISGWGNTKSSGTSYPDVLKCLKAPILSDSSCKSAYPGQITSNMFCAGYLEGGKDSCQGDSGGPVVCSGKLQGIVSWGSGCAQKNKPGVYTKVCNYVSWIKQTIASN
Type: biochemical
Procedure: as §1, §2, §3, §4

In the case of `CC(=O)N[C@H](Cc1ccccc1)C(=O)N1CCC[C@H]1C(=O)N[C@H](C=O)CCCN=C(N)N.Cl` [Example 23, Ac-D-Phe-Pro-Arg-H.HCl], the “Enzyme Kass, Trypsin” value is reported as 14 L/mol × 10^6.

What follows are compounds tested against T4, factor Xa (Homo sapiens, UniProt P00742) (assay: Serine protease inhibition, factor Xa (chromogenic substrate), Kass). Conditions: substrate N-Benzoyl-Ile-Glu-Gly-Arg-p-nitroanilide.
T4 construct: Human factors X, Xa, IXa, XIa, and xIIa are purchased from Enzyme Research Laboratories; purchased Enzyme Research Laboratories, South Bend, Ind
T4 sequence (P00742 235-488 limits assumed): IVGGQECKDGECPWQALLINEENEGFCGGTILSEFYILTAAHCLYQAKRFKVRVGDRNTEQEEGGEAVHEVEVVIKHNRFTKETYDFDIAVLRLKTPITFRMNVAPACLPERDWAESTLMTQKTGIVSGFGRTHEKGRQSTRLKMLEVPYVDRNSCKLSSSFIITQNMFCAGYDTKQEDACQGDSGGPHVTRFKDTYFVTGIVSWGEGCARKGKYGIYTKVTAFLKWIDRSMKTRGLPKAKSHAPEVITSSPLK
T4 sequence (P00742 41-179 partner limits assumed): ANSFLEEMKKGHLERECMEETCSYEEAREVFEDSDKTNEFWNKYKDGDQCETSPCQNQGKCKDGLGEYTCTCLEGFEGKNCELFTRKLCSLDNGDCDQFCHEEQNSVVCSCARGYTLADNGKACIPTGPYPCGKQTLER
Type: biochemical
Procedure: as §1, §2, §3, §4

In order of falling “Enzyme Kass, Xa” value:
1. Cl.N=C(N)NCCC[C@@H](C=O)NC(=O)[C@@H]1CCCN1C(=O)[C@@H](CC1CCCCC1)NCC(=O)O [Example 36, HOCCH2 -D-Cha-Pro-ArgH.HCl]  40.5 L/mol × 10^6
2. Cl.N=C(N)NCCC[C@@H](C=O)NC(=O)[C@@H]1CCCN1C(=O)[C@@H](Cc1ccccc1)NCC(=O)O [Example 35, HOOCCH2 -D-Phe-Pro-ArgH.HCl]  3.3 L/mol × 10^6
3. CC(=O)N[C@H](Cc1ccccc1)C(=O)N1CCC[C@H]1C(=O)N[C@H](C=O)CCCN=C(N)N.Cl [Example 23, Ac-D-Phe-Pro-Arg-H.HCl]  0.066 L/mol × 10^6

The compounds below were run against T5, human thrombin (Homo sapiens, UniProt P00734) (assay: Inhibition of amidase activity of thrombin (chromogenic substrate), Kass). Conditions: substrate N-benzoyl-Phe-Val-Arg-p-nitroanilide, pH 7.4.
T5 construct: purified human thrombin Enzyme Research Laboratories, South Bend, Ind; purchased Enzyme Research Laboratories, South Bend, Ind
Type: biochemical
Procedure: as §1
The Kass value is the hypothetical equilibrium constant for the reaction between thrombin and the test compound (I). [drawing 53]
as §2

In order of falling “Enzyme Kass, Human Thrombin” value:
1. Cl.N=C(N)NCCC[C@@H](C=O)NC(=O)[C@@H]1CCCN1C(=O)[C@@H](Cc1ccccc1)NCC(=O)O [Example 35, HOOCCH2 -D-Phe-Pro-ArgH.HCl]  695 L/mol × 10^6
2. Cl.N=C(N)NCCC[C@@H](C=O)NC(=O)[C@@H]1CCCN1C(=O)[C@@H](CC1CCCCC1)NCC(=O)O [Example 36, HOCCH2 -D-Cha-Pro-ArgH.HCl]  556 L/mol × 10^6
3. CC(=O)N[C@H](Cc1ccccc1)C(=O)N1CCC[C@H]1C(=O)N[C@H](C=O)CCCN=C(N)N.Cl [Example 23, Ac-D-Phe-Pro-Arg-H.HCl]  3.4 L/mol × 10^6
